Measurements published in ChEMBL document CHEMBL5149980, “The Alpha Keto Amide Moiety as a Privileged Motif in Medicinal Chemistry: Current Insights and Emerging Opportunities” (J Med Chem, 2021).
Converted amounts (≈) assume the structure as drawn.

Key:
[1] = target: T1, Phospholipase A2, membrane associated (Homo sapiens, UniProt P14555); test: Inhibition of human group IIA phospholipase A2 preincubated with compound for 10 mins followed by enzyme addition and measured after 30 mins by PC/DOC assay
T1 sequence (P14555 whole entry): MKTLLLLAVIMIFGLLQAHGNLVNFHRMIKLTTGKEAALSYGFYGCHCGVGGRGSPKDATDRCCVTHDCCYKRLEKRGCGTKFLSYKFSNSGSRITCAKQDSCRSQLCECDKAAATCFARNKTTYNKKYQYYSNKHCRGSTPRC

[2] = target: T1, Phospholipase A2, membrane associated; test: Inhibition of human group IIA phospholipase A2 incubated for 30 mins by automatic plate reader analysis
[3] = target: Translocator protein (Rattus norvegicus) (UniProt P16257); test: Activation of TSPO in rat C6 glioma cells assessed as increase in pregnenolone incubated for 2 hrs by radioimmuno assay; assay type: cell-based; parameters: concentration or dose not given beside the values; conditions: filed as activator
Chain of Translocator protein (Rattus norvegicus) (P16257 whole entry, looked up): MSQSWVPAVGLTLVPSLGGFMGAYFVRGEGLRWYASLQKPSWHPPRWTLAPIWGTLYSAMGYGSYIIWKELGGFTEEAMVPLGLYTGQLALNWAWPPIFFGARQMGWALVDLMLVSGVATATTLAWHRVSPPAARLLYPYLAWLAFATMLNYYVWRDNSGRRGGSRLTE

[4] = Inhibition of MERS-CoV Main protease; parameters: species or system Middle East respiratory syndrome-related coronavirus
[5] = Inhibition of SARS-CoV Main protease; parameters: species or system Severe acute respiratory syndrome-related coronavirus
[6] = target: Phospholipase A2 group V (Mus musculus, UniProt P97391); test: Inhibition of mouse group V phospholipase A2 incubated for 10 to 20 mins cells by radiometric assay
Chain of Phospholipase A2 group V (Mus musculus, UniProt P97391) (P97391 whole entry): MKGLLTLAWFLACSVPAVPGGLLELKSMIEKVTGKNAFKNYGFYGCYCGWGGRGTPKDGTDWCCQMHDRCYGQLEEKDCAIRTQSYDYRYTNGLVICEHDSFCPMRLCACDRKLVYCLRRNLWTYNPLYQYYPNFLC

[7] = target: Group IIC secretory phospholipase A2 (Mus musculus, UniProt P48076); test: Inhibition of mouse group IIC phospholipase A2 incubated for 10 to 20 mins cells by radiometric assay
Chain of Group IIC secretory phospholipase A2 (P48076 whole entry): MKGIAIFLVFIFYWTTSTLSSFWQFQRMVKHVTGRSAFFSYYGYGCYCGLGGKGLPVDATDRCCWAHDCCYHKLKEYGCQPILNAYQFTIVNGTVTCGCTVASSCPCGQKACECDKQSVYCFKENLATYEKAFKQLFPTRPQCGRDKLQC

[8] = target: Phospholipase A2 group V (Homo sapiens, UniProt P39877); test: Inhibition of human group V phospholipase A2 expressed in Escherichia coli BL21(DE3) cells incubated for 10 to 20 mins cells by radiometric assay
Chain of Phospholipase A2 group V (Homo sapiens, UniProt P39877) (P39877 whole entry): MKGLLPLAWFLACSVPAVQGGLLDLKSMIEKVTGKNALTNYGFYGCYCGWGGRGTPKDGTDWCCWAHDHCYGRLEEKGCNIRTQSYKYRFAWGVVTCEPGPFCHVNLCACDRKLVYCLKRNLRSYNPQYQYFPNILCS

[9] = target: Group IIE secretory phospholipase A2 (Mus musculus, UniProt Q9QUL3); test: Inhibition of mouse group IIE phospholipase A2 incubated for 10 to 20 mins cells by radiometric assay
Chain of Group IIE secretory phospholipase A2 (Mus musculus, UniProt Q9QUL3) (Q9QUL3 whole entry): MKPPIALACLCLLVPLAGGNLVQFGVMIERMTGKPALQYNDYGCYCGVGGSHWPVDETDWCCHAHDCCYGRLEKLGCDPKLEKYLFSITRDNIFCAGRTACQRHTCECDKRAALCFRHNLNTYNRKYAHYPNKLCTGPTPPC

[10] = target: Phospholipase A2 (Homo sapiens, UniProt P04054); test: Inhibition of human group IB phospholipase A2 expressed in Escherichia coli BL21 cells incubated for 10 to 20 mins cells by radiometric assay
Chain of Phospholipase A2 (Homo sapiens, UniProt P04054) (P04054 whole entry): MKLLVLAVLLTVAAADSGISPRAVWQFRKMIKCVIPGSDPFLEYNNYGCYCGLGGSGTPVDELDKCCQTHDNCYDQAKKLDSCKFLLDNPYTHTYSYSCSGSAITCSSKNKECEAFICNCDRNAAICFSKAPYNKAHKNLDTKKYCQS

[11] = target: Phospholipase A2, membrane associated (Mus musculus, UniProt P31482); test: Inhibition of mouse group IIA phospholipase A2 incubated for 10 to 20 mins cells by radiometric assay
Chain of Phospholipase A2, membrane associated (Mus musculus, UniProt P31482) (P31482 whole entry): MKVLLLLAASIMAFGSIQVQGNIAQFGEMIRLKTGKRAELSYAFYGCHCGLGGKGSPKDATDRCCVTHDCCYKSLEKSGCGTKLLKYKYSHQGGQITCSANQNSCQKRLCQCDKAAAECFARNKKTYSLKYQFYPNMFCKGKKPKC

[12] = target: T1, Phospholipase A2, membrane associated; test: Inhibition of human group IIA phospholipase A2 incubated for 10 to 20 mins cells by radiometric assay
[13] = target: Group 10 secretory phospholipase A2 (Homo sapiens, UniProt O15496); test: Inhibition of human group X phospholipase A2 incubated for 10 to 20 mins cells by radiometric assay
Chain of Group 10 secretory phospholipase A2 (Homo sapiens, UniProt O15496) (O15496 whole entry): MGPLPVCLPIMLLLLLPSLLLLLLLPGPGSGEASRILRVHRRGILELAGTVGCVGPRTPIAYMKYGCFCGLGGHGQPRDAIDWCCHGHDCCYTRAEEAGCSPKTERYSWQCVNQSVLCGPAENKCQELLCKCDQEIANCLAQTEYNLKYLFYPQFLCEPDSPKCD

[14] = target: Group 10 secretory phospholipase A2 (Mus musculus, UniProt Q9QXX3); test: Inhibition of mouse group X phospholipase A2 incubated for 10 to 20 mins cells by radiometric assay
Chain of Group 10 secretory phospholipase A2 (Mus musculus, UniProt Q9QXX3) (Q9QXX3 whole entry): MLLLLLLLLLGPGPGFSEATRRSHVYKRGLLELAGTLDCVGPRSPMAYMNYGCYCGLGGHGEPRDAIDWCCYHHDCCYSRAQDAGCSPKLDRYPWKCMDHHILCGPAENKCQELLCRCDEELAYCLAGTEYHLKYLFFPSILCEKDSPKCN

[15] = target: Group IIE secretory phospholipase A2 (Homo sapiens, UniProt Q9NZK7); test: Inhibition of human group IIE phospholipase A2 expressed in Escherichia coli BL21 cells incubated for 10 to 20 mins cells by radiometric assay
Chain of Group IIE secretory phospholipase A2 (Homo sapiens, UniProt Q9NZK7) (Q9NZK7 whole entry): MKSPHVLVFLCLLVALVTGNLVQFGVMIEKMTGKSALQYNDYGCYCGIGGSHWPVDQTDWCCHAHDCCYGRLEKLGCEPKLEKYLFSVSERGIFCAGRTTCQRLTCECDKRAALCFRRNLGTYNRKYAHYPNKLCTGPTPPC

[16] = target: Phospholipase A2 (Mus musculus, UniProt Q9Z0Y2); test: Inhibition of mouse group IB phospholipase A2 incubated for 10 to 20 mins cells by radiometric assay
Chain of Phospholipase A2 (Mus musculus, UniProt Q9Z0Y2) (Q9Z0Y2 whole entry): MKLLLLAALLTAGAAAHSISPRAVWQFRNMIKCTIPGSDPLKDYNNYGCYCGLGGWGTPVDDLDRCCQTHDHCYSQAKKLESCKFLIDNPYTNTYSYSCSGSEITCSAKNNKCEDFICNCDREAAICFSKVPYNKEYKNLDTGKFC

[17] = target: T2, Translocator protein (Homo sapiens, UniProt P30536); test: Displacement of [3H] PK11195 from TSPO (unknown origin) assessed as inhibition constant
T2 sequence (P30536 whole entry): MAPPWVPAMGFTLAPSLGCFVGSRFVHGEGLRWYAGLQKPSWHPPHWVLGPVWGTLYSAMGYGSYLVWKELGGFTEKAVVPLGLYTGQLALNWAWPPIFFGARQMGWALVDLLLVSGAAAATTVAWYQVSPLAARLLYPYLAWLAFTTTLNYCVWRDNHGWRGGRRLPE

[18] = target: Translocator protein (Rattus norvegicus, UniProt P16257); test: Displacement of [3H]-PK11195 from rat kidney mitochondrial membrane TSPO receptor assessed as inhibition constant; assay type: cell membranes
Chain of Translocator protein (Rattus norvegicus, UniProt P16257) (P16257 whole entry, looked up): as the sequence (P16257 whole entry, looked up) above

[19] = target: GABA A receptor alpha-2/beta-2/gamma-2 (Homo sapiens) (UniProt P47870+P18507+P47869); test: Inhibition of alpha2beta2gamma2 GABAA receptor (unknown origin) relative to control; assay type: protein-complex assay
[20] = target: GABA-A receptor; alpha-1/beta-2/gamma-2 (Homo sapiens) (UniProt P14867+P47870+P18507); test: Inhibition of alpha1beta2gamma2 GABAA receptor (unknown origin) relative to control; assay type: protein-complex assay
[21] = target: GABA-A receptor; alpha-5/beta-3/gamma-2 (Homo sapiens) (UniProt P18507+P28472+P31644); test: Inhibition of alpha5beta3gamma2 GABAA receptor (unknown origin) relative to control; assay type: protein-complex assay
[22] = system: Escherichia coli; test: Inhibition of quorum sensing system in Escherichia coli MT102 assessed as GFP level incubated for 22 hrs at 250 uM by microplate titre analysis relative to control; assay type: functional
[23] = system: Pseudomonas aeruginosa; test: Inhibition of quorum sensing system in Pseudomonas aeruginosa MH602 assessed as GFP level incubated for 15 hrs at 250 uM by microplate titre analysis relative to control; assay type: functional
[24] = system: SARS-CoV-2; test: Antiviral activity against SARS-CoV-2 infected in human Calu-3 cells; assay type: functional, organism-based; conditions: Severe acute respiratory syndrome coronavirus 2, Calu-3
[25] = target: Replicase polyprotein 1ab (Severe acute respiratory syndrome coronavirus 2, UniProt P0DTD1); test: Inhibition of SARS-Cov-2 Main protease
[26] = target: Cathepsin S (Homo sapiens, UniProt P25774); test: Inhibition of human Cathepsin S assessed as inhibition constant
Chain of Cathepsin S (P25774 whole entry): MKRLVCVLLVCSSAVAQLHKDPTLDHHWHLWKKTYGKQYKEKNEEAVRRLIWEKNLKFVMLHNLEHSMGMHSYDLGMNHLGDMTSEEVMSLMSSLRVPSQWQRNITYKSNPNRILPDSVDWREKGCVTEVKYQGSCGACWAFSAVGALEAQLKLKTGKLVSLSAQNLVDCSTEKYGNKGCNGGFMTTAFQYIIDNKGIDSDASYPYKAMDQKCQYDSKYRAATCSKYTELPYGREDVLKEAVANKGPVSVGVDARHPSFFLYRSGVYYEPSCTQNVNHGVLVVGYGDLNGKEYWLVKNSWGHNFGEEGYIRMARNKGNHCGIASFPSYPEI

[27] = target: Dipeptidyl peptidase 1 (Homo sapiens) (UniProt P53634); test: Inhibition of human Cathepsin C assessed as inhibition constant at 10 uM relative to control
Chain of Dipeptidyl peptidase 1 (Homo sapiens) (P53634 25-134 limits assumed): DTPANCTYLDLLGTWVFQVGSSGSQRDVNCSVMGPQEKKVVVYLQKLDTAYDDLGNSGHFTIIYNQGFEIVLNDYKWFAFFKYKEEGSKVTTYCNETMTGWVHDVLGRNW
Chain of Dipeptidyl peptidase 1 (Homo sapiens) (P53634 231-394 limits assumed): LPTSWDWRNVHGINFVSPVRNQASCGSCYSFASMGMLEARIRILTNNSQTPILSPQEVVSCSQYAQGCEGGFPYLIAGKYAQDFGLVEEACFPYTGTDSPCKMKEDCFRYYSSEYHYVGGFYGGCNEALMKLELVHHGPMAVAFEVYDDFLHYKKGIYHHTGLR
Chain of Dipeptidyl peptidase 1 (Homo sapiens) (P53634 395-463 limits assumed): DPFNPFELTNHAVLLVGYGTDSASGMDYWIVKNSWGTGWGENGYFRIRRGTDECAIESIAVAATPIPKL

[28] = target: Calpain-1 catalytic subunit (Homo sapiens, UniProt P07384); test: Inhibition of human Calpain I assessed as dissociation constant using Suc-Leu-Tyr-AMC as substrate preincubated for 15 mins followed by compound addition and measured after 40 mins by […]
Chain of Calpain-1 catalytic subunit (P07384 whole entry): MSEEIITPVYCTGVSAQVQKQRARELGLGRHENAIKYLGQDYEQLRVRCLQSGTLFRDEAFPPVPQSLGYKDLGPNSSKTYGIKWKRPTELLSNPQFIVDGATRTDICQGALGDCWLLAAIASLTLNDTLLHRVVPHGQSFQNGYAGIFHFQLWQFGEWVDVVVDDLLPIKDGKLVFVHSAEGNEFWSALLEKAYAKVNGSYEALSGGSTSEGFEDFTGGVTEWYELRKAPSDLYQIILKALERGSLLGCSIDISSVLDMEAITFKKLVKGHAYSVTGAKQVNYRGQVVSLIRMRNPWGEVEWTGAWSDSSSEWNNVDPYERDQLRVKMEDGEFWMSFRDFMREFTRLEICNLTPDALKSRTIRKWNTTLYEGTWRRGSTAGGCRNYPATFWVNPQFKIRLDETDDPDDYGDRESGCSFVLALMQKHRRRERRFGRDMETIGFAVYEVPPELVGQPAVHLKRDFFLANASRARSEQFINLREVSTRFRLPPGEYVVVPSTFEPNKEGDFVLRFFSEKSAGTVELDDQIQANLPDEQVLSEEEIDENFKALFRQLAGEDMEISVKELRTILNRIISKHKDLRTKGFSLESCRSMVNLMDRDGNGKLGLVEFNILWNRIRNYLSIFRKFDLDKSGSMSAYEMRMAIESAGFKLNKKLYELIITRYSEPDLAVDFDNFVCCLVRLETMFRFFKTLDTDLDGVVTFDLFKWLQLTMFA

[29] = target: Cathepsin K (Homo sapiens, UniProt P43235); test: Inhibition of human Cathepsin K assessed as inhibition constant
Chain of Cathepsin K (P43235 whole entry): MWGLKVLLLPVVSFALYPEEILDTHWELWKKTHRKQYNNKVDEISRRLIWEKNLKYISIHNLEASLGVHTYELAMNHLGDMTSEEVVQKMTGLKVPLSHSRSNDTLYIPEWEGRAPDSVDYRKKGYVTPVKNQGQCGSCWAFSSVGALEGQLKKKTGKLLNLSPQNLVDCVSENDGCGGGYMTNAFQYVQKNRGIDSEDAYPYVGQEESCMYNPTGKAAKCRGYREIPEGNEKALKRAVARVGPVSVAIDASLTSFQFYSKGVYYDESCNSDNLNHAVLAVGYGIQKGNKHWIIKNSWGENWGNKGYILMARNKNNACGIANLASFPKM

[30] = species on record: Homo sapiens; test: Inhibition of human Cathepsin H assessed as inhibition constant at 10 uM relative to control
[31] = target: Procathepsin L (Homo sapiens, UniProt P07711); test: Inhibition of human Cathepsin L assessed as inhibition constant
Chain of Procathepsin L (P07711 whole entry): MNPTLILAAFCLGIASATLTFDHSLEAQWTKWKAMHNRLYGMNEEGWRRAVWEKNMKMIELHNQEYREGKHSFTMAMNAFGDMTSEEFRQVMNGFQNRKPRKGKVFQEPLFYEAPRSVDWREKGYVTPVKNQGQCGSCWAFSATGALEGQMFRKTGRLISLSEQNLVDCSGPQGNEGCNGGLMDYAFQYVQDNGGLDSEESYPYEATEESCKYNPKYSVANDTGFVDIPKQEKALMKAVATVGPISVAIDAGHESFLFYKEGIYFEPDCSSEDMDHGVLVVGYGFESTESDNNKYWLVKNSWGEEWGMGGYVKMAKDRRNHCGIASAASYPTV

[32] = target: Cathepsin B (Homo sapiens, UniProt P07858); test: Inhibition of human Cathepsin B assessed as inhibition constant
[33] = system: Staphylococcus aureus; test: Antibacterial activity against Staphylococcus aureus assessed as bacterial growth inhibition incubated for 24 hrs by microplate reader analysis; assay type: functional
[34] = system: Pseudomonas putida; test: Antibacterial activity against Pseudomonas putida assessed as bacterial growth inhibition by microdilution analysis; assay type: functional
[35] = system: Bacillus cereus; test: Antibacterial activity against Bacillus cereus assessed as bacterial growth inhibition by microdilution analysis; assay type: functional
[36] = system: Escherichia coli; test: Antibacterial activity against Escherichia coli assessed as bacterial growth inhibition by microdilution analysis; assay type: functional
[37] = system: Staphylococcus aureus; test: Antibacterial activity against Staphylococcus aureus assessed as bacterial growth inhibition by microdilution analysis; assay type: functional
[38] = target: T2, Translocator protein; test: Displacement of [3H] PK11195 from TSPO in human U-87 MGcell membrane assessed as inhibition constant; assay type: cell membranes, U-87 MG
[39] = system: Staphylococcus aureus; test: Antibacterial activity against Staphylococcus aureus SA38 infected in MRC5 assessed as bacterial growth inhibition by alamar blue assay; assay type: functional

Structure (SMILES): CCc1c(CC(N)=O)c2c(OCC(=O)O)cccn2c1Cc1cccc2ccccc12
- IC50 [1]: 0.005 µM
- IC50 [2]: 0.03 µM

Structure (SMILES): CCC(C)N(C)C(=O)c1cc2ccccc2c(-c2ccccc2Cl)n1 (stereo not given)
- Activity [3]: 48%

Structure (SMILES): CC(C)(C)OC(=O)Nc1cccn([C@@H](CC2CC2)C(=O)N[C@@H](C[C@@H]2CCNC2=O)C(=O)C(=O)NCc2ccccc2)c1=O
- IC50 [4]: 0.58 µM
- IC50 [5]: 0.9 µM

Structure (SMILES): Cc1c(C(=O)C(N)=O)c2c(OCC(=O)O)cccn2c1Cc1ccccc1-c1ccccc1
- IC50 [6]: 0.01 µM
- IC50 [1]: 0.0014 µM
- IC50 [7]: 0.01 µM
- IC50 [8]: 0.01 µM
- IC50 [9]: 0.01 µM
- IC50 [10]: 0.1 µM
- IC50 [11]: 0.01 µM
- IC50 [12]: 0.01 µM
- IC50 [13]: 0.1 µM
- IC50 [14]: 0.1 µM
- IC50 [15]: 0.01 µM
- IC50 [16]: 0.1 µM

Structure (SMILES): CC(C)C[C@H](NC(=O)C(=O)c1c(-c2ccccc2)[nH]c2ccccc12)C(=O)N[C@H](Cc1ccccc1)C(=O)O
- Ki [17]: 0.202 µM

Structure (SMILES): CCc1c(C(=O)C(N)=O)c2c(OCC(O)CC)cccn2c1Cc1cccc(Cl)c1 (stereo not given)
- IC50 [2]: 19 µM

Structure (SMILES): CN1C(=O)CN=C(c2ccc(Cl)cc2)c2cc(Cl)ccc21
- Activity [3]: 41%

Structure (SMILES): CCCN(CCC)C(=O)C(=O)c1c(-c2ccccc2)[nH]c2ccc(C)cc12
- Activity [3]: 148%
- Ki [18]: 0.0055 µM

Structure (SMILES): O=C(NCc1ccccc1)C(=O)c1c[nH]c2ccc([N+](=O)[O-])cc12
- inhibition [19]: 32%
- inhibition [20]: 65%
- inhibition [21]: 44%

Structure (SMILES): CCOC(=O)CNC(=O)C(=O)c1ccccc1Nc1ccc([N+](=O)[O-])cc1[N+](=O)[O-]
- inhibition [22]: 73.6%
- inhibition [23]: 48.7%

Structure (SMILES): Nc1cccn([C@@H](CC2CC2)C(=O)N[C@@H](C[C@@H]2CCNC2=O)C(=O)C(=O)NCc2ccccc2)c1=O
- EC50 [24]: 4 µM

Structure (SMILES): CC(C)(C)OC(=O)Nc1cccn([C@@H](CC2CCCCC2)C(=O)N[C@@H](C[C@@H]2CCNC2=O)C(=O)C(=O)NCc2ccccc2)c1=O
- IC50 [25]: 2.39 µM

Structure (SMILES): CCN(CC)c1ccc(/C=C/c2ccccc2C(=O)NC(Cc2ccccc2)C(=O)C(N)=O)cc1 (stereo not given)
- Ki [26]: 3.29 µM
- inhibition [27]: 94%
- Ki [28]: 0.056 µM
- Ki [29]: 0.0018 µM
- inhibition [30]: 84%
- Ki [31]: 0.137 µM
- Ki [32]: 0.028 µM

Structure (SMILES): C[N+](C)(C)CCCNC(=O)C(=O)c1cc(Br)ccc1NC(=O)c1ccc2ccccc2c1.[Cl-]
- MIC [33]: 16 µg/mL

Structure (SMILES): CCOC(=O)[C@@H](Cc1ccccc1)NC(=O)[C@H](CC(C)C)NC(=O)C(=O)c1c(-c2ccccc2)[nH]c2ccccc12
- Ki [17]: 0.438 µM

Structure (SMILES): C[N+](C)(C)CCCNC(=O)C(=O)c1cc(Br)ccc1NC(=O)c1ccc2ccccc2c1.[I-]
- MIC [33]: 39 µg/mL

Structure (SMILES): CCCCN(CCCC)C(=O)C(=O)c1c(-c2ccc(Cl)cc2)[nH]c2ccc(Cl)cc12
- Activity [3]: 147%

Structure (SMILES): O=C(Nc1ccc(F)cc1)C(=O)c1ccc2c(c1)c1ccccc1n2Cc1ccc(Cl)cc1
- MIC [34]: 16 µg/mL
- MIC [35]: 16 µg/mL
- MIC [36]: 8 µg/mL
- MIC [37]: > 8 µg/mL

Structure (SMILES): CCOC(=O)[C@@H](Cc1ccccc1)NC(=O)[C@H](CC(C)C)NC(=O)C(=O)c1c(-c2ccccc2)[nH]c2ccc(N=C=S)cc12
- Ki [38]: 0.108 µM

Structure (SMILES): CCCCCCCCCS(=O)(=O)Nc1ccc(Br)cc1C(=O)C(=O)NCCCNC(=N)N
- MIC [39]: 12 µM (≈ 6.39 µg/mL)

Structure (SMILES): CCc1c(C(=O)C(=O)NC)c2c(OCC(=O)O)cccn2c1Cc1ccccc1
- IC50 [2]: > 50 µM

Structure (SMILES): CCCCCCN(CCCCCC)C(=O)C(=O)c1c(-c2ccc(Cl)cc2)[nH]c2ccc(Cl)cc12
- Activity [3]: 166%

Structure (SMILES): Cc1c(C(=O)C(N)=O)c2c(OCn3cnnn3)cccn2c1Cc1ccccc1-c1ccccc1
- IC50 [1]: 0.007 µM
- IC50 [2]: 0.007 µM
